Measured values taken from article PMC8151276, “An Integrated Approach toward NanoBRET Tracers for Analysis of GPCR Ligand Engagement” (Molecules, 2021).

Columns and labels:
Assay type in all cases: binding
NPBWR2 = biological target: T1, NPBWR2 (Homo sapiens, UniProt P48146); assay: NanoBRET screen HiBiT-NPBWR2 in HEK293
T1 construct: purchased Promega (in-house HiBiT-GPCR construct library, NanoBRET)
Description: (§1) Each tracer candidate was screened across the entire library of HiBiT-GPCR constructs using NanoBRET as the detection modality. As depicted in Figure 4A, the specificity of interactions was evaluated through decrease in BRET due to competitive displacement of a bound tracer by excess parental compound. Each tracer was analyzed for binding to each HiBiT-GPCR fusion in the absence and in the presence of competing parental compound. Briefly, HEK293 cells were transfected with HiBiT-GPCR constructs diluted into promoterless DNA to reduce expression and maximize translocation to the cell surface. Each tracer candidate was then screened at concentrations of 1 μM and 0.1 μM across cells expressing these fusions. Cells were treated for 1.5 h with tracer either alone or in the presence of 20 μM competing parental compound (i.e., control). BRET was measured upon addition of purified LgBiT and subsequent complementation with HiBiT genetically fused to a GPCR. The specificity of interactions was assessed through a decrease in BRET signal due to competitive displacement of the bound tracer. To further gauge the robustness of these interactions, the fold response over the control (i.e., BRETtracer/BRETcontrol) was calculated. We chose a 1.5-fold response, which translates to ≥7-fold signal over noise as the minimal threshold required to score an interaction as positive. […]. Below we highlight the screening results obtained for our exemplary fluorescent tracers based on Clozapine, Amitriptyline and AZD1283.
(§2) HiBiT-GPCR DNA constructs were diluted in 10 mM Tris pH 8 to a final concentration of 0.01 μg/μL, arrayed in 96-well plates and stored at −20 °C. For transfection, HEK293 cells were suspended in Opti-MEM (without phenol red) supplemented with 2% fetal bovine serum (Seradigm) and 100 units/mL penicillin–streptomycin (Gibco) at a final concentration of 220,000 cells/mL and dispensed into white 96-well plates at 90 μL/well. Subsequent transfections and screens were carried using an Agilent Bravo Automated Liquid Handling Platform. First, the 96-well HiBiT DNA arrays were diluted 25-fold in Opti-MEM (without serum or phenol red) to a final concentration of 0.0004 μg/μL and 20 μL of the diluted DNAs were transferred into new 96-well plates. Next, promoterless carrier DNA (1 μg/μL) was diluted 25-fold (0.04 μg/μL) and then dispensed into the diluted arrays at 20 μL/well. Following brief mixing, Viafect transfection reagent (Promega) diluted 16-fold into Opti-MEM was dispensed into the plates at 40 μL/well. After mixing by pipetting, plates were incubated for 10 min on the pipetting station deck. The DNA-transfection reagent complexes were then added to plates containing cells. To facilitate the screen, 10 μL of DNA-transfection reagent complexes were added in duplicates to the top 4 and bottom 4 rows, resulting in two identical 48-well arrays per plate. Plates with transfected cells were incubated for 18–20 h at 37 °C/5% CO2. A screen of each tracer across the entire library using two different concentrations requires duplicate plates of transfected cells. Depending on the number of tracers being screened, transfections can be scaled up using the same ratios. The next day, for each tracer, four 20× screening solutions in tracer dilution buffer (Promega) were prepared: two duplicates at final concentration of 20 μM and two duplicates at a final concentration of 2 μM. A competing unmodified compound was added to one of each duplicate at a final concentration of 400 μM. The four resulting solutions were diluted 4-fold in Opti-MEM without serum or phenol red to generate 5× solutions (5 µM and 0.5 µM tracer +/− 100 μM competing compound). To screen the library, a BioTek MultiFlo FX liquid dispenser was used to dispense 22.5 µL of tracer solution to the top 4 rows and 22.5 µL tracer + competing compound solution to the 4 bottom rows. Plates were briefly mixed on an orbital shaker and incubated for 1.5 h at room temperature. […]

F2RL3 = biological target: T2, F2RL3 (Homo sapiens, UniProt Q96RI0); assay: NanoBRET screen HiBiT-F2RL3 in HEK293
T2 construct: purchased Promega (in-house HiBiT-GPCR construct library, NanoBRET)
T2 sequence (Q96RI0 18-385): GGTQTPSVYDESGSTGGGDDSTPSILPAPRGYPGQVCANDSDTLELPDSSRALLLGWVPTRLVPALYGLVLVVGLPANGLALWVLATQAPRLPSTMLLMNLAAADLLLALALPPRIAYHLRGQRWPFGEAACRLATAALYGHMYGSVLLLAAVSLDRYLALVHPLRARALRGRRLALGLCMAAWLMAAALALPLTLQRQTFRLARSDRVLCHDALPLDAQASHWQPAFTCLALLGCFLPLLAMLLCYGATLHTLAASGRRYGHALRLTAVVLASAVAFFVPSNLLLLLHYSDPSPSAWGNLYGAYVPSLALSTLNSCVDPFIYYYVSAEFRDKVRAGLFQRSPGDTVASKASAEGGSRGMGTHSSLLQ
Description: as §1, §2

ADRA2B = biological target: T3, ADRA2B (Homo sapiens, UniProt P18089); assay: NanoBRET screen HiBiT-ADRA2B in HEK293
T3 construct: purchased Promega (in-house HiBiT-GPCR construct library, NanoBRET)
T3 sequence (P18089 1-450): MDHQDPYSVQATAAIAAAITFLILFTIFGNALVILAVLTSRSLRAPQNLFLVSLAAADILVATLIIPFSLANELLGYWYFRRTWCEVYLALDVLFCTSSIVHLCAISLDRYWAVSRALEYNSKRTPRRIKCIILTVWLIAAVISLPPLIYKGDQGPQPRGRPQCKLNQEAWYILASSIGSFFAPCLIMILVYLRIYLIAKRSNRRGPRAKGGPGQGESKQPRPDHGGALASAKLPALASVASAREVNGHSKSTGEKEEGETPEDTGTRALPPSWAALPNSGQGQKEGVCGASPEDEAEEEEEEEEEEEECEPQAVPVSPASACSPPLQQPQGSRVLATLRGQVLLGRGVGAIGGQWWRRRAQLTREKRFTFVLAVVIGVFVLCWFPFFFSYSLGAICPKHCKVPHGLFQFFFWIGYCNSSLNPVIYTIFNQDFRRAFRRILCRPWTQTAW

T1 sequence (P48146 whole entry): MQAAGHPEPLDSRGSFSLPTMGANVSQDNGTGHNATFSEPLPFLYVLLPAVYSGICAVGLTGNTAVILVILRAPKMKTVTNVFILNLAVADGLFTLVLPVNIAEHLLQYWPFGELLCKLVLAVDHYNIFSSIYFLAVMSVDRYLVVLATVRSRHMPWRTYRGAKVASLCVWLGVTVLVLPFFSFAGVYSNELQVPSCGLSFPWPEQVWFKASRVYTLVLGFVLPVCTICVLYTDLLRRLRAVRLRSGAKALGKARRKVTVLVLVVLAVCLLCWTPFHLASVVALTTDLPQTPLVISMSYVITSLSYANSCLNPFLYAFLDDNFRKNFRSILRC

SMILES | NanoBRET Fold Response (NPBWR2; NPBWR2, tracer 0.1μM) | NanoBRET Fold Response (NPBWR2; NPBWR2, tracer 1μM) | NanoBRET Fold Response (F2RL3; F2RL3, tracer 0.1μM) | NanoBRET Fold Response (F2RL3; F2RL3, tracer 1μM) | NanoBRET Fold Response (ADRA2B; ADRA2B, tracer 0.1μM) | NanoBRET Fold Response (ADRA2B; ADRA2B, tracer 1μM) | further results
O=C(CCOCCOCCOCCOCCNC(=O)CCc1ccc2n1[B-](F)(F)[N+]1=C(c3ccc[nH]3)C=CC1=C2)NCCCN1CCN(C2=Nc3cc(Cl)ccc3Nc3ccccc32)CC1 [Clozapine-a-2-NB590] | – | – | – | – | – | – | NanoBRET Fold Response (NPBWR2; NPBWR2, 0.1μM tracer): 1.04; NanoBRET Fold Response (NPBWR2; NPBWR2, 1μM tracer): 0.89; NanoBRET Fold Response (F2RL3; F2RL3, 0.1μM tracer): 1.02; NanoBRET Fold Response (F2RL3; F2RL3, 1μM tracer): 1.15; NanoBRET Fold Response (ADRA2B; ADRA2B, 0.1μM tracer): 7.79; NanoBRET Fold Response (ADRA2B; ADRA2B, 1μM tracer): 7.79
CCCn1c(=O)c2[nH]c(-c3ccc(OCC(=O)NCCNC(=O)CCOCCNC(=O)c4ccc(CNC(=O)CCc5ccc6n5[B-](F)(F)[N+]5=C(c7ccc[nH]7)C=CC5=C6)cc4)cc3)nc2n(CCC)c1=O [XAC-3-NB590] | 1.01 | 0.99 | 0.99 | 1.05 | 0.91 | 0.95 | –
N#CN=C(NCCCOc1cccc(CN2CCCCC2)c1)NCCNC(=O)CCOCCOCCOCCOCCNC(=O)CCc1ccc2n1[B-](F)(F)[N+]1=C(c3ccc[nH]3)C=CC1=C2 [Aminopotentidine-2-NB590] | 1.04 | 0.92 | 0.99 | 1.06 | 1.12 | 1.11 | –
COc1ccc2c(n1)c(CCNC(C)=O)cn2CCNC(=O)CCc1ccc2n1[B-](F)(F)[N+]1=C(c3ccc[nH]3)C=CC1=C2 [Azamelatonin-1-NB590] | – | – | – | – | – | – | NanoBRET Fold Response (NPBWR2; 0.1μM tracer): 0.91; NanoBRET Fold Response (NPBWR2; 1μM tracer): 0.82; NanoBRET Fold Response (F2RL3; 0.1μM tracer): 0.98; NanoBRET Fold Response (F2RL3; 1μM tracer): 0.86; NanoBRET Fold Response (ADRA2B; 0.1μM tracer): 1.18; NanoBRET Fold Response (ADRA2B; 1μM tracer): 0.96
CC(C)N(CC[C@H](c1ccccc1)c1cc(CCNC(=O)c2ccc(CNC(=O)CCc3ccc4n3[B-](F)(F)[N+]3=C(c5ccc[nH]5)C=CC3=C4)cc2)ccc1O)C(C)C [Tolterodine-BZ-NB590] | 0.96 | 1.06 | 1.03 | 1.06 | 1.04 | 1.13 | –
